Like-named read-outs stand apart in the source and are kept apart here.

The subject of assay [1] is HCV replicon D168V variant in Huh7 cells. Description: microbe, parasite or virus in culture. The format is cell-based, Hepatitis C virus. The note with it: for EC50: Hepatitis C virus; for Replicon EC50 (Fold change) D168V: Table 4, relative to WT replicon. How it is done:
(§1) Mutations (R155K, A516T, D168A and D168V) were constructed by site-directed mutagenesis using a Con1 (genotype 1b) luciferase reporter replicon containing the H77 (genotype 1a) NS3 sequence.
Replicon RNA of each protease variant was introduced into Huh7 cells by electroporation. Replication was then assessed in the presence of increasing concentrations of protease inhibitors by measuring luciferase activity (relative light units) 96 h after electroporation. […]

Assay [2] deals with wild-type HCV replicon in Huh7 cells. In words: Cell-based drug susceptibility (replicon) assay, wild-type. The note with it: Hepatitis C virus, read-out: Replicon EC50 (nM) WT. How it is done: as §1
(§2) Replicon RNA of each protease variant was introduced into Huh7 cells by electroporation. Replication was then assessed in the presence of increasing concentrations of protease inhibitors by measuring luciferase activity (relative light units) 96 h after electroporation.
(§3) Mutations (R155K, D168A and A156T) were constructed by site-directed mutagenesis using a Con1 (genotype 1b) luciferase reporter replicon containing the H77 (genotype 1a) NS3 sequence.^6 Replicon RNA of each protease variant was introduced into Huh7 cells by electroporation. Replication was then assessed in the presence of increasing concentrations of protease inhibitors by measuring luciferase activity (relative light units) 96 h after electroporation.
A general note: Replicon systems follow genome replication, usually without infectious particles.

The target of the next assay is T1, GT3a NS3/4A protease (Hepatitis C virus genotype 3a, UniProt Q81495).
T1 construct: drug-resistant variant D168A, and GT3a NS3/4A protease; made in house; host or cells: Escherichia coli BL21(DE3)
T1 sequence (Q81495 1033-1214): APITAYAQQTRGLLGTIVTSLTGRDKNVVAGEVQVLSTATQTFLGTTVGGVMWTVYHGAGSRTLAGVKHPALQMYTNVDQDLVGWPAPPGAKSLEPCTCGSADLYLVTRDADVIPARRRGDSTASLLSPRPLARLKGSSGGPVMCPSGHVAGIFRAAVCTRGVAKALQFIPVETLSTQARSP
Description: biochemical. The note with it: for Ki (Fold change) GT3a NS3/4A Protease: Ki GT3a relative to GT1a WT. How it is done:
(§4) For each assay, 2 nM of NS3/4A protease (GT1, D168A and GT3) was pre-incubated at room temperature for 1 h with increasing concentration of inhibitors in assay buffer [50 mM Tris, 5% glycerol, 10 mM DTT, 0.6 mM LDAO, and 4% dimethyl sulfoxide]. Inhibition assays were performed in nonbinding surface 96-well black half-area plates (Corning) in a reaction volume of 60 μt. […] Three independent data sets were collected for each inhibitor with each protease construct.

Assay [3] has as its target GT1a D168A NS3/4A protease. The format is biochemical, Hepatitis C virus. The note with it: Table 3; Ki D168A relative to GT1a WT. How it is done: as §4
(§5) For each assay, 2 nM of NS3/4A protease (GT1a and D168A) was pre-incubated at room temperature for 1 h with increasing concentration of inhibitors in assay buffer (50 mM Tris, 5% glycerol, 10 mM DTT, 0.6 mM LDAO, and 4% dimethyl sulfoxide, pH 7.5). Inhibition assays were performed in non-binding surface 96-well black half-area plates (Corning) in a reaction volume of 60 μL. […] Three independent data sets were collected for each inhibitor with each protease construct.
(§6) For each assay, 2 nM of NS3/4A protease (GT1a, R155K and D168A) was pre-incubated at room temperature for 1 h with increasing concentration of inhibitors in assay buffer (50 mM Tris, 5% glycerol, 10 mM DTT, 0.6 mM LDAO, and 4% dimethyl sulfoxide, pH 7.5). Inhibition assays were performed in non-binding surface 96-well black half-area plates (Corning) in a reaction volume of 60 μL. […] Three independent data sets were collected for each inhibitor with each protease construct. […] Gibbs free energy of binding was calculated using the following equation: ΔG=RTlnKi

Assay [4] deals with T2, wild-type GT1a NS3/4A protease (UniProt P27958, C1185S, species not given).
T2 construct: Ki (nM) GT1a WT NS3/4A Protease
The format is biochemical, Hepatitis C virus. The note with it: read-out: Ki (nM) GT1a WT NS3/4A Protease. How it is done: as §4, §5, §6

The target in assay [5] is T3, GT1a D168A NS3/4A protease (UniProt P27958, C1185S/D1194A, species not given).
T3 construct: Ki (nM) GT1a D168A NS3/4A Protease
The format is biochemical, Hepatitis C virus. The note with it: read-out: Ki (nM) GT1a D168A NS3/4A Protease. Here is the method:
as §4, §5, §6

The test system of assay [6] is HCV replicon R155K variant in Huh7 cells. Description: microbe, parasite or virus in culture. The format is cell-based, Hepatitis C virus. The note with it: for EC50: Hepatitis C virus; for Replicon EC50 (Fold change) R155K: Table 4, relative to WT replicon. How it is done: as §1, §2, §3
Assay [7] relates to HCV replicon D168A variant in Huh7 cells. Description: microbe, parasite or virus in culture. The format is cell-based, Hepatitis C virus. The note with it: for EC50: Hepatitis C virus; for Replicon EC50 (Fold change) D168A: Table 4, relative to WT replicon. How it is done: as §1, §2, §3
Assay [8] has as its system HCV replicon A156T variant in Huh7 cells. Description: microbe, parasite or virus in culture. The format is cell-based, Hepatitis C virus. The note with it: for EC50: Hepatitis C virus; for Replicon EC50 (Fold change) A156T: Table 4, relative to WT replicon. Here is the method:
as §1, §2, §3

[9] abbreviates: Huh-7, 96 h, read-out: Replicon EC50 (nM) D168V, Table 2, Huh7 cells, luciferase 96 h.
The mark [10] stands for this setting: Huh-7, read-out: Replicon EC50 (nM) D168V, Table 4.
Where [11] appears, read: Huh-7, 96 h, Table 2, Huh7 cells, luciferase 96 h.
Where [12] appears, read: Huh-7, 96 h, read-out: Replicon EC50 (nM) R155K, Table 2, Huh7 cells, luciferase 96 h.
Where [13] appears, read: Huh-7, read-out: Replicon EC50 (nM) R155K, Table 4.
The mark [14] stands for this setting: Huh-7, 96 h, read-out: Replicon EC50 (nM) D168A, Table 2, Huh7 cells, luciferase 96 h.
Where [15] appears, read: Huh-7, read-out: Replicon EC50 (nM) D168A, Table 4.
[16] abbreviates: Huh-7, 96 h, read-out: Replicon EC50 (nM) A156T, Table 2, Huh7 cells, luciferase 96 h.
Where [17] appears, read: Huh-7, read-out: Replicon EC50 (nM) A156T, Table 4.

For `COc1ccc2nc(C(F)(F)F)c(O[C@@H]3C[C@H]4C(=O)N[C@]5(C(=O)NS(=O)(=O)C6CC6)C[C@H]5/C=C\CCCCC[C@H](NC(=O)OC(C)(C)C)C(=O)N4C3)nc2c1` [Compound 18d], the EC50 in assay [1] (setting [9]) was 17.1 nM; in assay [1] (setting [10]) it was 17.1 nM; in [2] (setting [11]), 1.98 nM; in [2] (Huh-7, Table 4), 1.98 nM; in [6] (setting [12]), 3.45 nM; in [6] (setting [13]) it was 3.45 nM. Also, the EC50 in assay [7] (setting [14]) came to 16.8 nM; in assay [7] (setting [15]), 16.8 nM; in assay [8] (setting [16]) it was 36.2 nM; in [8] (setting [17]), 36.2 nM. Moreover, in [1], the “Replicon EC50 (Fold change) D168V” value is listed as “(9) fold”. In addition, the Ki was determined as 344 nM on GT3a NS3/4A protease; 13.3 nM in [4] (Table 1); 13.3 nM in assay [4] (Table 3); 157 nM in assay [5] (Table 1); 157 ± 12 nM in assay [5] (Table 3). The “Ki (Fold change) GT3a NS3/4A Protease” value on GT3a NS3/4A protease (Table 3) is on record as “(26) fold”. Also, the “Ki (Fold change) GT1a D168A NS3/4A Protease” value in assay [3] is reported as “(12) fold”. In assay [6], the “Replicon EC50 (Fold change) R155K” value is on record as “(2) fold”. In addition, the “Replicon EC50 (Fold change) D168A” value in assay [7] was “(8) fold”. Also, the “Replicon EC50 (Fold change) A156T” value in assay [8] is given as “(18) fold”.

As for `COc1ccc2nc(C(F)(F)F)c(O[C@@H]3C[C@H]4C(=O)N[C@]5(C(=O)NS(=O)(=O)C6(C)CC6)C[C@H]5/C=C\CCCCC[C@H](NC(=O)OC(C)(C)C)C(=O)N4C3)nc2c1` [Compound 19d, tert-Butyl ((2R,6S,13aS,14aR,16aS,Z)-2-((7-methoxy-3-(trifluoromethyl)quinoxalin-2-yl)oxy)-14a-(((1-methylcyclopropyl)sulfonyl)carbamoyl)-5,16-dioxo-1,2,3,5,6,7,8,9,10,11,13a,14,14a,15,16,16a-hexadecahydrocyclopropa[e]pyrrolo[1,2-a][1,4]diazacyclopentadecin-6-yl)carbamate], the EC50 is 8.31 nM in assay [1] (setting [9]); 8.31 nM in assay [1] (setting [10]); 1.52 nM in assay [2] (setting [11]); 1.52 nM in assay [2] (Huh-7, Table 4); 2.3 nM in assay [6] (setting [12]); 2.3 nM in assay [6] (setting [13]). For the same compound, the EC50 in assay [7] (setting [14]) came out at 8.64 nM; in [7] (setting [15]), 8.64 nM; in assay [8] (setting [16]) it was 20.5 nM; in assay [8] (setting [17]), 20.5 nM. Also, the “Replicon EC50 (Fold change) D168V” value in assay [1] is “(5) fold”. Moreover, the Ki was determined as 231 nM at GT3a NS3/4A protease; 231 ± 74 nM on GT3a NS3/4A protease (read-out: Ki (nM) GT3a NS3/4A Protease, Table 3); 5.77 nM in assay [4] (Table 1); 5.77 nM in assay [4] (Table 3); 118 nM in assay [5] (Table 1); 118 ± 13 nM in assay [5] (Table 3). Further, on GT3a NS3/4A protease (Table 3), the “Ki (Fold change) GT3a NS3/4A Protease” value is listed as “(40) fold”. For the same compound, the “Ki (Fold change) GT1a D168A NS3/4A Protease” value in assay [3] is “(20) fold”. In addition, the “Replicon EC50 (Fold change) R155K” value in [6] is on record as “(2) fold”. The “Replicon EC50 (Fold change) D168A” value in [7] is listed as “(6) fold”. Further, the “Replicon EC50 (Fold change) A156T” value in assay [8] is “(13) fold”.

As for `COc1ccc2nc(C)c(O[C@@H]3C[C@H]4C(=O)N[C@]5(C(=O)NS(=O)(=O)C6(C)CC6)C[C@H]5/C=C\CCCCC[C@H](NC(=O)OC5CCCC5)C(=O)N4C3)nc2c1` [Compound 23b, Cyclopentyl ((2R,6S,13aS,14aR,16aS,Z)-2-((7-methoxy-3-methylquinoxalin-2-yl)oxy)-14a-(((1-methylcyclopropyl)sulfonyl)carbamoyl)-5,16-dioxo-1,2,3,5,6,7,8,9,10,11,13a,14,14a,15,16,16a-hexadecahydrocyclopropa[e]pyrrolo[1,2-a][1,4]diazacyclopentadecin-6-yl)carbamate], the 50% effective concentration (EC50) in assay [2] (setting [11]) was 0.13 nM; in [2] (Huh-7, Table 4) it was 0.13 nM; in assay [6] (setting [12]) it was 1.09 nM; in assay [6] (setting [13]), 1.09 nM; in [7] (setting [14]) it was 2.16 nM; in assay [7] (setting [15]) it was 2.16 nM. The concentration giving a half-maximal response (EC50) in assay [8] (setting [16]) and in assay [8] (setting [17]) was 3.99 nM each time. Also, the Ki is 121 nM at GT3a NS3/4A protease; 1.13 nM in assay [4] (Table 1); 1.13 nM in assay [4] (Table 3); 36.3 nM in [5] (Table 1); 36.3 ± 1.8 nM in [5] (Table 3).

In the case of `COc1ccc2nc(C(C)C)c(O[C@@H]3C[C@H]4C(=O)N[C@]5(C(=O)NS(=O)(=O)C6(C)CC6)C[C@H]5/C=C\CCCCC[C@H](NC(=O)OC5CCCC5)C(=O)N4C3)nc2c1` [Compound 23e, Cyclopentyl ((2R,6S,13aS,14aR,16aS,Z)-2-((3-isopropyl-7-methoxyquinoxalin-2-yl)oxy)-14a-(((1-methylcyclopropyl)sulfonyl)carbamoyl)-5,16-dioxo-1,2,3,5,6,7,8,9,10,11,13a,14,14a,15,16,16a-hexadecahydrocyclopropa[e]pyrrolo[1,2-a][1,4]diazacyclopentadecin-6-yl)carbamate], the EC50 in assay [1] (setting [9]) was determined as 18.2 nM; in assay [1] (setting [10]), 18.2 nM; in [2] (setting [11]), 0.59 nM; in assay [2] (Huh-7, Table 4) it was 0.59 nM; in assay [6] (setting [12]), 6.83 nM; in assay [6] (setting [13]) it was 6.83 nM. In addition, the EC50 in assay [7] (setting [14]) is 7.91 nM; in assay [7] (setting [15]), 7.91 nM; in assay [8] (setting [16]), 27.6 nM; in assay [8] (setting [17]), 27.6 nM. For the same compound, in assay [1], the “Replicon EC50 (Fold change) D168V” value is “(31) fold”. The “Ki (Fold change) GT1a D168A NS3/4A Protease” value in [3] is reported as “(116) fold”. For the same compound, the Ki in assay [4] (Table 1) is 1.34 nM; in assay [4] (Table 3) it was 1.34 nM; in assay [5] (Table 1), 156 nM; in assay [5] (Table 3), 156 ± 17 nM. The “Replicon EC50 (Fold change) R155K” value in [6] is reported as “(12) fold”. Further, the “Replicon EC50 (Fold change) D168A” value in assay [7] is listed as “(13) fold”. In addition, the “Replicon EC50 (Fold change) A156T” value in [8] is given as “(47) fold”.

The term EC50 denotes the concentration giving half of the maximal effect.

These data come from patent US11472778B2, “Hepatitis C virus NS3/4A protease inhibitors” (priority 2017, dated 2022).
